Reference: patent publication US20140031217A1, “HERBICIDAL COMPOSITIONS COMPRISING 4-AMINO-3-CHLORO-5-FLUORO-6-(4-CHLORO-2-FLUORO-3-METHOXYPHENYL)PYRIDINE-2-CARBOXYLIC ACID OR A DERIVATIVE THEREOF AND AUXIN TRANSPORT INHIBITORS” (DOW AGROSCIENCES LLC, priority 2012, published 2014)

How the values were obtained:
[1] = test system: FIMMI; assay: In-water applied (paddy) greenhouse weed control, FIMMI; type: in vivo, Fimbristylis miliacea (L.) Vahl; settings: 19 DAA
Description: Weed seeds or nutlets of the desired test plant species were planted in puddled soil (mud) prepared by mixing a shredded, non-sterilized mineral soil (50.5 percent silt, 25.5 percent clay, and 24 percent sand, with a pH of about 7.6 and an organic matter content of about 2.9 percent) and water at a 1:1 volumetric ratio. The prepared mud was dispensed in 365 mL aliquots into 16-ounce (oz.) non-perforated plastic pots with a surface area of 86.59 square centimeters (cm^2) leaving a headspace of 3 centimeters (cm) in each pot. Mud was allowed to dry overnight prior to planting or transplanting. Rice seeds were planted in Sun Gro MetroMix® 306 planting mixture, which typically has a pH of 6.0 to 6.8 and an organic matter content of about 30 percent, in plastic plug trays. Seedlings at the second or third leaf stage of growth were transplanted into 840 mL of mud contained in 32-oz. non-perforated plastic pots with a surface area of 86.59 cm^2 4 days prior to herbicide application. The paddy was created by filling the headspace of the pots with 2.5 to 3 cm of water. When required to ensure good germination and healthy plants, a fungicide treatment and/or other chemical or physical treatment was applied. The plants were grown for 4-22 days in a greenhouse with an approximate 14 h photoperiod which was maintained at about 29′C during the day and 26° C. during the night. Nutrients were added as Osmocote® (19:6:12, N:P:K+minor nutrients) at 2 g per 16-oz. pot and 4 g per 960-mL 32-oz. pot. Water was added on a regular basis to maintain the paddy flood, and supplemental lighting was provided with overhead metal halide 1000-Watt lamps as necessary. The plants were employed for testing when they reached the second or third true leaf stage.
Treatments consisted of the acid or esters of 4-amino-3-chloro-5-fluoro-6-(4-chloro-2-fluoro-3-methoxy-phenyl)pyridine-2-carboxylic acid (compound A) each formulated as an SC and various herbicidal components alone and in combination. Forms of compound A were applied on an acid equivalent basis.
(§1) Other herbicidal components were applied on an active ingredient basis and included auxin transport inhibiting (ATI) herbicides chlorflurenol-methyl (technical material), chlorflurenol (technical material), diflufenzopyr (technical material), dilfufenzopyr sodium (technical material), flurenol-methyl (technical material,) and naptalam (technical material).
Treatment requirements for each compound or herbicidal component were calculated based upon the rates being tested, the concentration of active ingredient or acid equivalent in the formulation, an application volume of 2 mL per component per pot, and an application area of 86.59 cm^2 per pot.
For formulated compounds, a measured amount was placed in an individual 100 or 200 mL glass vial and was dissolved in a volume of 1.25% (v/v) Agri-Dex® crop oil concentrate to obtain application solutions.
For technical grade compounds, a weighed amount was placed in an individual 100 to 200 mL glass vial and was dissolved in a volume of acetone to obtain concentrated stock solutions. […] The concentrated stock solutions obtained were diluted with an equivalent volume of an aqueous mixture containing 2.5% (v/v) crop oil concentrate so that the final application solutions contained 1.25% (v/v) crop oil concentrate.
Applications were made by injecting with a pipetter appropriate amounts of the application solutions, individually and sequentially, into the aqueous layer of the paddy. Control plants were treated in the same manner with the solvent blank. Applications were made so that all treated plant material received the same concentrations of acetone and crop oil concentrate.
The treated plants and control plants were placed in a greenhouse as described above and water was added as needed to maintain a paddy flood. […]

[2] = test system: DIGSA; assay: Postemergence foliar-applied greenhouse weed control, DIGSA; type: in vivo, Digitaria sanguinalis (L.) Scop.
Description: Seeds or nutlets of the desired test plant species were planted in a soil matrix prepared by mixing a loam or sandy loam soil (e.g., 28.6 percent silt, 18.8 percent clay, and 52.6 percent sand, with a pH of about 5.8 and an organic matter content of about 1.8 percent) and calcareous grit in an 80 to 20 ratio. The soil matrix was contained in plastic pots with a volume of 1 quart and a surface area of 83.6 square centimeters (cm^2). When required to ensure good germination and healthy plants, a fungicide treatment and/or other chemical or physical treatment was applied. The plants were grown for 8-22 days in a greenhouse with an approximate 14 h photoperiod which was maintained at about 29° C. during the day and 26° C. during the night. Nutrients (Peters Excel® 15-5-15 5-Ca 2-Mg and iron chelate) were applied in the irrigation solution as needed and water was added on a regular basis. Supplemental lighting was provided with overhead metal halide 1000-Watt lamps as necessary. The plants were employed for testing when they reached the first through fourth true leaf stage.
Treatments consisted of the acid or esters of 4-amino-3-chloro-5-fluoro-6-(4-chloro-2-fluoro-3-methoxy-phenyl) pyridine-2-carboxylic acid (Compound A), each formulated as an SC (suspension concentrate), and various herbicidal components alone and in combination. Forms of compound A were applied on an acid equivalent basis.
as §1, with “chlorflurenol” for “chlorflurenol-methyl”, “chlorflurenol-methyl” for “chlorflurenol”, “diflufenzopyr” for “dilfufenzopyr”, “material)” for “material,)”
Treatment requirements were calculated based upon the rates being tested, the concentration of active ingredient or acid equivalent in the formulation, and a 12 mL application volume at a rate of 187 L/ha.
For treatments comprised of formulated and technical compounds, weighed amounts of the technical materials were placed individually in 25 mL glass vials and dissolved in a volume of 97:3 v/v acetone/DMSO to obtain 12× stock solutions, and measured amounts of the formulated compounds were placed individually in 25 mL glass vials and diluted in a volume of 1.5% (v/v) crop oil concentrate or water to obtain 12× stock solutions. […] Application solutions were prepared by adding an appropriate amount of each stock solution (e.g., 1 mL) and diluted to the appropriate final concentrations with the addition of an appropriate amount of an aqueous mixture of 1.5% (v/v) crop oil concentrate so that the final spray solutions contained 1.25% (v/v) crop oil concentrate. When required, additional water and/or 97:3 v/v acetone/DMSO was added to individual application solutions so that the final acetone and DMSO concentrations of the application solutions being compared were 8.1% and 0.25%, respectively.
All stock solutions and applications solutions were visually inspected for compound compatibility prior to application. Spray solutions were applied to the plant material with an overhead Mandel track sprayer equipped with an 8002E nozzle calibrated to deliver 187 L/ha over an application area of 0.503 m^2 at a spray height of 18 to 20 inches (46 to 50 cm) above average plant canopy height. Control plants were sprayed in the same manner with the solvent blank.
The treated plants and control plants were placed in a greenhouse as described above and watered by sub-irrigation to prevent wash-off of the test compounds. After approximately 3 weeks, the condition of the test plants as compared with that of the untreated plants was determined visually and scored on a scale of 0 to 100 percent where 0 corresponds to no injury or growth inhibition and 100 corresponds to complete kill. […]

For `COc1c(Cl)ccc(-c2nc(C(=O)OCc3ccccc3)c(Cl)c(N)c2F)c1F` [Compound A Benzyl Ester], the “Visual Weed Control (%) Obs” value ([1]; 8 gae/ha) was 0%, the “Visual Weed Control (%) Obs” value ([1]; 16 gae/ha) was 0% and the “Visual Weed Control (%) Obs” value ([1]; 32 gae/ha) was 85%. The “Visual Weed Control (%) Obs” value ([2]; 20 DAA, 4.38 gae/ha) was 40%, the “Visual Weed Control (%) Obs” value ([2]; 20 DAA, 8.75 gae/ha) was 40% and the “Visual Weed Control (%) Obs” value ([2]; 21 DAA, 17.5 gae/ha) was 30%.
